Test results taken from the supplement of paper PMC11208160.

Experiment: recombinant UMI read abundance after kanamycin selection (control-corrected) (log10(CPM+1)); higher = more efficient recombination; extreme values may be limits of the assay; sequences stand for … in AGTGCAGAGAAAATCGGCCAGTTTTCTCTGCCTGCAGTCCGCATGCCGTGGGACCCCTTGGGTTCTAACCTGTTGCCTAGATTTATGCAGCGGACTGCCTTTCTCCCAAAGTGATAAACCGG…AGGTTGGTTTCACT; site = the 11-nt donor
Outline: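 Each donor and donor-binding-loop pair was tracked by a 12-nt UMI on a plasmid carrying a promoterless kanamycin gene. With a second plasmid supplying a fixed target and T7-inducible IS621 bridge recombinase, the pool was plated in Escherichia coli on IPTG (0.07 mM) plus kanamycin or unselected. Sequencing of recombinant UMIs across the donor–target junction gave counts expressed as log10(CPM+1) after replicate averaging and control-derived scaling.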
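Also: IS621 bridge recombinase in Escherichia coli cells against a fixed T5 target plasmid.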

## CAAGCGTCATGGACCGGTTTTCCCGGTAATCCGTATTTGTG (site CAAGCGACTCA)
  recombinant UMI read abundance (log10): 0.101

## CAAGCGTCATGGACCGGTTTTCCCGGTAATCCGTATTTGTG (site CAAGCGCCTCA)
  recombinant UMI read abundance (log10): 0.0275

## CAAGCGTCATGGACCGGTTTTCCCGGTAATCCGTATTTGTG (site CAAGCGGCTCA)
  recombinant UMI read abundance (log10): 0.00505

## CAAGCGTCATGGACCGGTTTTCCCGGTAATCCGTATTTGTG (site CAAGCGTCTCA)
  recombinant UMI read abundance (log10): 2.6

## CAAGGAACATGGACCGGTTTTCCCGGTAATCCGTATTTGCT (site CAAGGAACTAG)
  recombinant UMI read abundance (log10): 2.26

## CAAGGAGCATGGACCGGTTTTCCCGGTAATCCGTATTTGCT (site CAAGAAGCTAG)
  recombinant UMI read abundance (log10): 2.45

## CAAGGAGCATGGACCGGTTTTCCCGGTAATCCGTATTTGCT (site CAAGCAGCTAG)
  recombinant UMI read abundance (log10): 2.16

## CAAGGAGCATGGACCGGTTTTCCCGGTAATCCGTATTTGCT (site CAAGGAGCTAG)
  recombinant UMI read abundance (log10): 2.76

## CAAGGAGCATGGACCGGTTTTCCCGGTAATCCGTATTTGCT (site CAAGTAGCTAG)
  recombinant UMI read abundance (log10): 2.2

## CAAGGCCCATGGACCGGTTTTCCCGGTAATCCGTATTTGTC (site CAAGGCCCTGA)
  recombinant UMI read abundance (log10): 2.07

## CAAGGCTCATGGACCGGTTTTCCCGGTAATCCGTATTTGAA (site CAAAGCTCTTT)
  recombinant UMI read abundance (log10): 2.15

## CAAGGCTCATGGACCGGTTTTCCCGGTAATCCGTATTTGAA (site CAACGCTCTTT)
  recombinant UMI read abundance (log10): 0.00296

## CAAGGCTCATGGACCGGTTTTCCCGGTAATCCGTATTTGAA (site CAAGGCTCTTT)
  recombinant UMI read abundance (log10): 2.71

## CAAGGCTCATGGACCGGTTTTCCCGGTAATCCGTATTTGAA (site CAATGCTCTTT)
  recombinant UMI read abundance (log10): 0.368

## CAAGTATCATGGACCGGTTTTCCCGGTAATCCGTATTTGAC (site CAAGTATCTGT)
  recombinant UMI read abundance (log10): 2.94

## CAAGTATCATGGACCGGTTTTCCCGGTAATCCGTATTTGAC (site CCAGTATCTGT)
  recombinant UMI read abundance (log10): 0.955

## CAAGTATCATGGACCGGTTTTCCCGGTAATCCGTATTTGAC (site CGAGTATCTGT)
  recombinant UMI read abundance (log10): 2.2

## CAAGTATCATGGACCGGTTTTCCCGGTAATCCGTATTTGAC (site CTAGTATCTGT)
  recombinant UMI read abundance (log10): 2.04

## CAAGTCACATGGACCGGTTTTCCCGGTAATCCGTATTTGGT (site CAAGTCACTAC)
  recombinant UMI read abundance (log10): 1.84

## CAAGTCACATGGACCGGTTTTCCCGGTAATCCGTATTTGGT (site CAAGTCACTCC)
  recombinant UMI read abundance (log10): 0.00397

## CAAGTCACATGGACCGGTTTTCCCGGTAATCCGTATTTGGT (site CAAGTCACTGC)
  recombinant UMI read abundance (log10): 2.43

## CAAGTCACATGGACCGGTTTTCCCGGTAATCCGTATTTGGT (site CAAGTCACTTC)
  recombinant UMI read abundance (log10): 0.155

## CAAGTCACATGGACCGGTTTTCCCGGTAATCCGTATTTGTT (site CAAGTCACTAA)
  recombinant UMI read abundance (log10): 2.2

## CAATACACATGGACCGGTTTTCCCGGTAATCCGTATTTGCA (site CAATACACTTG)
  recombinant UMI read abundance (log10): 2.2

## CAATACCCATGGACCGGTTTTCCCGGTAATCCGTATTTGCT (site CAATACCCTAG)
  recombinant UMI read abundance (log10): 1.93

## CAATACCCATGGACCGGTTTTCCCGGTAATCCGTATTTGCT (site CAATCCCCTAG)
  recombinant UMI read abundance (log10): 1.55

## CAATACCCATGGACCGGTTTTCCCGGTAATCCGTATTTGCT (site CAATGCCCTAG)
  recombinant UMI read abundance (log10): 0.00435

## CAATACCCATGGACCGGTTTTCCCGGTAATCCGTATTTGCT (site CAATTCCCTAG)
  recombinant UMI read abundance (log10): 0

## CAATAGCCATGGACCGGTTTTCCCGGTAATCCGTATTTGCC (site CAATAGCCTGG)
  recombinant UMI read abundance (log10): 0.755

## CAATATCCATGGACCGGTTTTCCCGGTAATCCGTATTTGTT (site CAATATCCTAA)
  recombinant UMI read abundance (log10): 1.7

## CAATCAGCATGGACCGGTTTTCCCGGTAATCCGTATTTGCT (site CAAACAGCTAG)
  recombinant UMI read abundance (log10): 0

## CAATCAGCATGGACCGGTTTTCCCGGTAATCCGTATTTGCT (site CAACCAGCTAG)
  recombinant UMI read abundance (log10): 0.798

## CAATCAGCATGGACCGGTTTTCCCGGTAATCCGTATTTGCT (site CAAGCAGCTAG)
  recombinant UMI read abundance (log10): 0.0241

## CAATCAGCATGGACCGGTTTTCCCGGTAATCCGTATTTGCT (site CAATCAGCTAG)
  recombinant UMI read abundance (log10): 0.199

## CAATCCTCATGGACCGGTTTTCCCGGTAATCCGTATTTGAA (site CAATACTCTTT)
  recombinant UMI read abundance (log10): 1.33

## CAATCCTCATGGACCGGTTTTCCCGGTAATCCGTATTTGAA (site CAATCCTCTTT)
  recombinant UMI read abundance (log10): 1.98

## CAATCCTCATGGACCGGTTTTCCCGGTAATCCGTATTTGAA (site CAATGCTCTTT)
  recombinant UMI read abundance (log10): 0.00935

## CAATCCTCATGGACCGGTTTTCCCGGTAATCCGTATTTGAA (site CAATTCTCTTT)
  recombinant UMI read abundance (log10): 0

## CAATGAGCATGGACCGGTTTTCCCGGTAATCCGTATTTGGG (site AAATGAGCTCC)
  recombinant UMI read abundance (log10): 0.0303

## CAATGAGCATGGACCGGTTTTCCCGGTAATCCGTATTTGGG (site CAATGAGCTCC)
  recombinant UMI read abundance (log10): 0.779

## CAATGAGCATGGACCGGTTTTCCCGGTAATCCGTATTTGGG (site GAATGAGCTCC)
  recombinant UMI read abundance (log10): 0.00334

## CAATGAGCATGGACCGGTTTTCCCGGTAATCCGTATTTGGG (site TAATGAGCTCC)
  recombinant UMI read abundance (log10): 0.0682

## CAATGCCCATGGACCGGTTTTCCCGGTAATCCGTATTTGCT (site CAATACCCTAG)
  recombinant UMI read abundance (log10): 1.74

## CAATGCCCATGGACCGGTTTTCCCGGTAATCCGTATTTGCT (site CAATCCCCTAG)
  recombinant UMI read abundance (log10): 0.246

## CAATGCCCATGGACCGGTTTTCCCGGTAATCCGTATTTGCT (site CAATGCCCTAG)
  recombinant UMI read abundance (log10): 1.34

## CAATGCCCATGGACCGGTTTTCCCGGTAATCCGTATTTGCT (site CAATTCCCTAG)
  recombinant UMI read abundance (log10): 0

## CAATGCGCATGGACCGGTTTTCCCGGTAATCCGTATTTGAA (site CAATGCACTTT)
  recombinant UMI read abundance (log10): 1.15

## CAATGCGCATGGACCGGTTTTCCCGGTAATCCGTATTTGAA (site CAATGCCCTTT)
  recombinant UMI read abundance (log10): 0.0173

## CAATGCGCATGGACCGGTTTTCCCGGTAATCCGTATTTGAA (site CAATGCGCTTT)
  recombinant UMI read abundance (log10): 1.9

## CAATGCGCATGGACCGGTTTTCCCGGTAATCCGTATTTGAA (site CAATGCTCTTT)
  recombinant UMI read abundance (log10): 0.823

## CAATGCTCATGGACCGGTTTTCCCGGTAATCCGTATTTGAC (site CAATGCTCTAT)
  recombinant UMI read abundance (log10): 0.737

## CAATGCTCATGGACCGGTTTTCCCGGTAATCCGTATTTGAC (site CAATGCTCTCT)
  recombinant UMI read abundance (log10): 0.051

## CAATGCTCATGGACCGGTTTTCCCGGTAATCCGTATTTGAC (site CAATGCTCTGT)
  recombinant UMI read abundance (log10): 3.03

## CAATGCTCATGGACCGGTTTTCCCGGTAATCCGTATTTGAC (site CAATGCTCTTT)
  recombinant UMI read abundance (log10): 1.28

## CAATGCTCATGGACCGGTTTTCCCGGTAATCCGTATTTGAT (site CAATGCTCTAT)
  recombinant UMI read abundance (log10): 2.87

## CAATGCTCATGGACCGGTTTTCCCGGTAATCCGTATTTGAT (site CAATGCTCTCT)
  recombinant UMI read abundance (log10): 0.607

## CAATGCTCATGGACCGGTTTTCCCGGTAATCCGTATTTGAT (site CAATGCTCTGT)
  recombinant UMI read abundance (log10): 1.36
